Laboratory results: patent publication US20110201016A1, “METHOD FOR DETECTING MODULATOR FOR REGULATING ACTIVITY OF CELLULAR COMPONENT IN CELL” (MEDISCOV INC., priority 2010, published 2011)

Tests used:
SNF1LK [1] = biological target: T1, SNF1LK (Homo sapiens, UniProt P57059); assay: Competition reaction with dasatinib-magnetic substance for EGFP-labelled kinase in cells; format: cell-based; conditions: SNF1LK-EGFP in HeLa cells; 10 μM reactive competitor for 30 minutes to 2 hours
T1 construct: the ORF without the stop codon was amplified for each gene by PCR and then cloned into an expression vector; expressed in transfected cells; host or cells: HeLa

BLK [2] = biological target: T2, BLK (Homo sapiens, UniProt P51451, G2A); assay: as above; format: cell-based; conditions: BLK-EGFP in HeLa cells; 10 μM reactive competitor for 30 minutes to 2 hours
T2 construct: the ORF without the stop codon was amplified for each gene by PCR; expressed in transfected cells; host or cells: HeLa

LYN [3] = biological target: T3, LYN (Homo sapiens, UniProt P07948, G2A); assay: as above; format: cell-based; conditions: LYN-EGFP in HeLa cells; 10 μM reactive competitor for 30 minutes to 2 hours
T3 construct: the ORF without the stop codon was amplified for each gene by PCR; expressed in transfected cells; host or cells: HeLa

MAPK14 [4] = biological target: T4, MAPK14 (Homo sapiens, UniProt Q16539); assay: as above; conditions: MAPK14-EGFP in HeLa cells; 10 μM reactive competitor for 30 minutes to 2 hours
ABL2 [5] = assay: Binding of dasatinib-magnetic substance to EGFP-labelled kinase in cells (magnetic pattern co-localization); conditions: EGFP-ABL2 in HeLa cells; dasatinib-biotin coated on streptavidin magnetic substance; magnetic field
CSK [6] = biological target: T5, CSK (Homo sapiens, UniProt P41240); assay: as above; conditions: CSK-EGFP in HeLa cells; dasatinib-biotin coated on streptavidin magnetic substance; magnetic field
RIPK2 [7] = biological target: T6, RIPK2 (Homo sapiens, UniProt O43353); assay: Competition reaction with dasatinib-magnetic substance for EGFP-labelled kinase in cells; format: cell-based; conditions: RIPK2-EGFP in HeLa cells; 10 μM reactive competitor for 30 minutes to 2 hours
T6 construct: the ORF without the stop codon was amplified for each gene by PCR; expressed in transfected cells; host or cells: HeLa

SNF1LK [8] = biological target: T1, SNF1LK; assay: Binding of dasatinib-magnetic substance to EGFP-labelled kinase in cells (magnetic pattern co-localization); format: cell-based; conditions: SNF1LK-EGFP in HeLa cells; dasatinib on magnetic substance; no reactive competitor
Excerpt: (§1) Bioconjug. […] Adv. Mater. […] J. Am. Chem. Soc. 130, 16466].
(§2) J. Am. Chem. Soc. 130, 16466].
(§3) Nature 255: 706]. […] J. Am. Chem. Soc. 130, 16466].

CSK [9] = biological target: T5, CSK; assay: Competition reaction with dasatinib-magnetic substance for EGFP-labelled kinase in cells; conditions: CSK-EGFP in HeLa cells; 10 μM reactive competitor for 30 minutes to 2 hours
FGR [10] = biological target: T7, FGR (Homo sapiens, UniProt P09769, G2A); assay: as above; conditions: FGR-EGFP in HeLa cells; 10 μM reactive competitor for 30 minutes to 2 hours
FGR [11] = biological target: T7, FGR; assay: Binding of dasatinib-magnetic substance to EGFP-labelled kinase in cells (magnetic pattern co-localization); conditions: FGR-EGFP (G2A) in HeLa cells; dasatinib-biotin coated on streptavidin magnetic substance; magnetic field
ABL2 [12] = assay: Competition reaction with dasatinib-magnetic substance for EGFP-labelled kinase in cells; conditions: EGFP-ABL2 in HeLa cells; 10 μM reactive competitor for 30 minutes to 2 hours
MAPK14 [13] = biological target: T4, MAPK14; assay: Binding of dasatinib-magnetic substance to EGFP-labelled kinase in cells (magnetic pattern co-localization); conditions: MAPK14-EGFP in HeLa cells; dasatinib on magnetic substance; no reactive competitor
KIT = biological target: T8, KIT (Homo sapiens, UniProt P10721); assay: Competition reaction with dasatinib-magnetic substance for EGFP-labelled kinase in cells; format: cell-based; conditions: KIT-EGFP in HeLa cells; 10 μM reactive competitor for 30 minutes to 2 hours
T8 construct: only the region of the amino acids 545 to 976 was amplified by PCR; expressed in transfected cells; host or cells: HeLa

BLK [14] = biological target: T2, BLK; assay: Binding of dasatinib-magnetic substance to EGFP-labelled kinase in cells (magnetic pattern co-localization); format: cell-based; conditions: BLK-EGFP (G2A) in HeLa cells; dasatinib-biotin coated on streptavidin magnetic substance; magnetic field
Excerpt: as §1, §2, §3
(§4) The result is illustrated in FIG. 2.

RIPK2 [15] = biological target: T6, RIPK2; assay: as above; format: cell-based; conditions: RIPK2-EGFP in HeLa cells; dasatinib-biotin coated on streptavidin magnetic substance; magnetic field
Excerpt: as §1, §2, §3, §4

LYN [16] = biological target: T3, LYN; assay: as above; format: cell-based; conditions: LYN-EGFP (G2A) in HeLa cells; dasatinib-biotin coated on streptavidin magnetic substance; magnetic field
Excerpt: as §1, §2, §3, §4

T6 sequence (O43353 whole entry): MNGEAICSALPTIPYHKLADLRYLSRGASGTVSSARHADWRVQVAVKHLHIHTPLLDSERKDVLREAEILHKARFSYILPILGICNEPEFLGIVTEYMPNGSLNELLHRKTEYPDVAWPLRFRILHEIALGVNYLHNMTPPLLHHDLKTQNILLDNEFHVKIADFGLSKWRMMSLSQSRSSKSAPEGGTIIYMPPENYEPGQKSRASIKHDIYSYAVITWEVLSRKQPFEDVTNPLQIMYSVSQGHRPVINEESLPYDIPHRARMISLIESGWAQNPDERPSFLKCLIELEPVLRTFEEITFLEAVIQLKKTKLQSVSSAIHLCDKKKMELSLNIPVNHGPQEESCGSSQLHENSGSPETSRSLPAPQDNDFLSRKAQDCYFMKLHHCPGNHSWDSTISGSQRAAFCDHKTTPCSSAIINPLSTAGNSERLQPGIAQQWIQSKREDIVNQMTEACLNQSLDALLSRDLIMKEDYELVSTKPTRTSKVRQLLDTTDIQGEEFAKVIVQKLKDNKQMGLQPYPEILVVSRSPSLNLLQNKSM
T4 sequence (Q16539 1-360 isoform Q16539-2): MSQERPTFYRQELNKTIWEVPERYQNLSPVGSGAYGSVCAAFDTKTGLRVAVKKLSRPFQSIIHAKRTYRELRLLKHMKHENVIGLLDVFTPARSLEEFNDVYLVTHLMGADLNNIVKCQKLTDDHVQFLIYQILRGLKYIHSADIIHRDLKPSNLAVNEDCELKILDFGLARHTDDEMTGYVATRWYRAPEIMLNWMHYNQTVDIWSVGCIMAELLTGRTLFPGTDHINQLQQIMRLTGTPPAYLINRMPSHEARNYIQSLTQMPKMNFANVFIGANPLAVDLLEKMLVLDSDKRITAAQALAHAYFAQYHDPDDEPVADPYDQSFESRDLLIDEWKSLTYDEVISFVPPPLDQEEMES
T3 sequence (P07948 1-491 isoform P07948-2 G2A): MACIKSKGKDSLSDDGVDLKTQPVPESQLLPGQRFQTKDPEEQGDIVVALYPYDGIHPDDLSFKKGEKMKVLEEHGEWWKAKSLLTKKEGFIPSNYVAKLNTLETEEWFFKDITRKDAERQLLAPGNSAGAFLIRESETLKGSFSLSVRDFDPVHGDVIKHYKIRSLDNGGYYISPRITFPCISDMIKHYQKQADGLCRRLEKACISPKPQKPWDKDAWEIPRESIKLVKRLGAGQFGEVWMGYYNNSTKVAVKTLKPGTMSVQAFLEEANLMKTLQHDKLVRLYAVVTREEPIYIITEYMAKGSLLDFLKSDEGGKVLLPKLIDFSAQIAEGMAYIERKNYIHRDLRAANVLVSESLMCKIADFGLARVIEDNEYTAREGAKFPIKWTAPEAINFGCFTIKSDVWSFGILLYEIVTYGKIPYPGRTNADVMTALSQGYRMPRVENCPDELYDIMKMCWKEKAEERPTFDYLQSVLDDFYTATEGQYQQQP
T5 sequence (P41240 whole entry): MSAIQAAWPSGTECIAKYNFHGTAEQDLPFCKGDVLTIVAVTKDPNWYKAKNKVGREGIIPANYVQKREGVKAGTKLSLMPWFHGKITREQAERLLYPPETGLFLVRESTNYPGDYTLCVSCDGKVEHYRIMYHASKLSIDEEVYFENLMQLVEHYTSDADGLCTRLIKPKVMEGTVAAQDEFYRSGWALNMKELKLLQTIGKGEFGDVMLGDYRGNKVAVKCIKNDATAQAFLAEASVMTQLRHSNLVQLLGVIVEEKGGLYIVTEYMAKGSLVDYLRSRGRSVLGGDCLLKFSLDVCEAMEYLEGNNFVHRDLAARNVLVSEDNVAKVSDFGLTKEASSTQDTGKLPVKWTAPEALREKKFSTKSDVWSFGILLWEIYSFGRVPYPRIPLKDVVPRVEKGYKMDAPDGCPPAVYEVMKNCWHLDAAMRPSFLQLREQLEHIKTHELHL
T1 sequence (P57059 whole entry): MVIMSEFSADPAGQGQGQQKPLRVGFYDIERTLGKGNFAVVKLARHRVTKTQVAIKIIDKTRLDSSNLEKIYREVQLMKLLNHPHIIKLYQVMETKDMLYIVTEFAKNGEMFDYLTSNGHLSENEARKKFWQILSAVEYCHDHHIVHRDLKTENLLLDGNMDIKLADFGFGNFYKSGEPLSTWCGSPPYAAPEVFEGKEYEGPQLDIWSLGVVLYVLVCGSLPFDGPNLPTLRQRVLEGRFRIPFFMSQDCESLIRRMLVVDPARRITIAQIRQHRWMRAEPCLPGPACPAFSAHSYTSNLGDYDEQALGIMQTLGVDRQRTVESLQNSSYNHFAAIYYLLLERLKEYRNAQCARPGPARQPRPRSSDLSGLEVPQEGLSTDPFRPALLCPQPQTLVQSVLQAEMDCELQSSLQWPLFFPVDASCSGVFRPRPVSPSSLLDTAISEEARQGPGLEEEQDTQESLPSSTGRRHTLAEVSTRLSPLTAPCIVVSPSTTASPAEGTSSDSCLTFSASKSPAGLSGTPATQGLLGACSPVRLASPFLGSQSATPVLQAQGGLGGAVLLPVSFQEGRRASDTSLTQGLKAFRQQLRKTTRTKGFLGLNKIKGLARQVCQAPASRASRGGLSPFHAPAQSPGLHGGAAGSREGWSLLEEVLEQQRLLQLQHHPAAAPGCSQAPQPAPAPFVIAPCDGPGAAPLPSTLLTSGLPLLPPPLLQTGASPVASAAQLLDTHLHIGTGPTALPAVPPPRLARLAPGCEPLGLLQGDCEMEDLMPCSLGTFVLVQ
T2 sequence (P51451 whole entry G2A): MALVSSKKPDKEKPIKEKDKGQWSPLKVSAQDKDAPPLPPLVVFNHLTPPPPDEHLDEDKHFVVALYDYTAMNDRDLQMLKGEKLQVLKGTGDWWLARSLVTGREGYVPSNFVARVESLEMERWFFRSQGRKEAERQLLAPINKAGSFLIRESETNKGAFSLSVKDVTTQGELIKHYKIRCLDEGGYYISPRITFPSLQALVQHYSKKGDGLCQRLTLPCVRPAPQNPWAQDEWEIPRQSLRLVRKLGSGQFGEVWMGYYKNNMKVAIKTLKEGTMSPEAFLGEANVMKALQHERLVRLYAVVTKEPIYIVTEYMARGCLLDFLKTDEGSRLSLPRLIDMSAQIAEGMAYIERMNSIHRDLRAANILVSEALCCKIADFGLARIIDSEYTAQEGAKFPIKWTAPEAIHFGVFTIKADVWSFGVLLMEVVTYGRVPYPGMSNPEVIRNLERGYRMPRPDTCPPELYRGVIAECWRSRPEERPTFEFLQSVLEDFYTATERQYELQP
T8 sequence (P10721 545-976): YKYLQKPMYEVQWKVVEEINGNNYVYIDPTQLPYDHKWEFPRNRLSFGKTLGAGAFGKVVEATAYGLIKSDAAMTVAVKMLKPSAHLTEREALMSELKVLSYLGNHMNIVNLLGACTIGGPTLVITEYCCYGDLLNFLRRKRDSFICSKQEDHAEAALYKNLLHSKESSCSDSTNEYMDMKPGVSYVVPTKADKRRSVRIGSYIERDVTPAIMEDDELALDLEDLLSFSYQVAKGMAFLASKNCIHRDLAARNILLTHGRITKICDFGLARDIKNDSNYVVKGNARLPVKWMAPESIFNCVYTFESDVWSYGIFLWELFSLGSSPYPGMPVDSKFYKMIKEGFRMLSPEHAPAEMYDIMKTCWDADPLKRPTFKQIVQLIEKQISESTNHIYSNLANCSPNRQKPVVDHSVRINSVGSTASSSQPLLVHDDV

Structure (SMILES) | competition with dasatinib-magnetic substance: fluorescent pattern overlapped with magnetization pattern (SNF1LK [1]) | competition with dasatinib-magnetic substance: fluorescent pattern overlapped with magnetization pattern (BLK [2]) | competition with dasatinib-magnetic substance: fluorescent pattern overlapped with magnetization pattern (LYN [3]) | competition with dasatinib-magnetic substance: fluorescent pattern overlapped with magnetization pattern (MAPK14 [4]) | fluorescent pattern of kinase-EGFP overlapped with magnetization pattern (binding) (ABL2 [5]) | fluorescent pattern of kinase-EGFP overlapped with magnetization pattern (binding) (CSK [6]) | competition with dasatinib-magnetic substance: fluorescent pattern overlapped with magnetization pattern (RIPK2 [7]) | fluorescent pattern of kinase-EGFP overlapped with magnetization pattern (binding) (SNF1LK [8]) | competition with dasatinib-magnetic substance: fluorescent pattern overlapped with magnetization pattern (CSK [9]) | competition with dasatinib-magnetic substance: fluorescent pattern overlapped with magnetization pattern (FGR [10]) | fluorescent pattern of kinase-EGFP overlapped with magnetization pattern (binding) (FGR [11]) | competition with dasatinib-magnetic substance: fluorescent pattern overlapped with magnetization pattern (ABL2 [12]) | fluorescent pattern of kinase-EGFP overlapped with magnetization pattern (binding) (MAPK14 [13]) | competition with dasatinib-magnetic substance: fluorescent pattern overlapped with magnetization pattern (KIT) | fluorescent pattern of kinase-EGFP overlapped with magnetization pattern (binding) (BLK [14]) | fluorescent pattern of kinase-EGFP overlapped with magnetization pattern (binding) (RIPK2 [15]) | fluorescent pattern of kinase-EGFP overlapped with magnetization pattern (binding) (LYN [16])
Cc1nc(Nc2ncc(C(=O)Nc3c(C)cccc3Cl)s2)cc(N2CCN(CCO)CC2)n1 [dasatinib, N-(2-chloro-6-methyl-phenyl)-2-(6-(4-(2-hydroxyethyl)-piperazin-1-yl)-2-methylpyrimidin-4-ylamino)thiazole-5-carboxamide] | fluorescent pattern overlapped with an induced magnetization pattern of the magnetic substances was not observed | fluorescent pattern overlapped with an induced magnetization pattern of the magnetic substances was not observed | fluorescent pattern overlapped with an induced magnetization pattern of the magnetic substances was not observed | fluorescent pattern overlapped with an induced magnetization pattern of the magnetic substances was not observed | showed the fluorescent patterns aligned in a magnetized direction | showed the fluorescent patterns aligned in a magnetized direction | fluorescent pattern overlapped with an induced magnetization pattern of the magnetic substances was not observed | interacted | fluorescent pattern overlapped with an induced magnetization pattern of the magnetic substances was not observed | fluorescent pattern overlapped with an induced magnetization pattern of the magnetic substances was not observed | showed the fluorescent patterns aligned in a magnetized direction | fluorescent pattern overlapped with an induced magnetization pattern of the magnetic substances was not observed | interacted | fluorescent pattern overlapped with an induced magnetization pattern of the magnetic substances was not observed | showed the fluorescent patterns aligned in a magnetized direction | showed the fluorescent patterns aligned in a magnetized direction | showed the fluorescent patterns aligned in a magnetized direction
Cc1ccc(NC(=O)c2ccc(CN3CCN(C)CC3)cc2)cc1Nc1nccc(-c2cccnc2)n1 [imatinib] | – | – | – | – | – | – | – | – | – | – | – | – | – | interacts | – | – | –
